Assays:
Settings in all cases: human; call rule not given here
Hepatotoxicity [1] = assay: FDA HLAED, serum glutamic oxaloacetic transaminase (SGOT) increase
Hepatotoxicity [2] = assay: FDA HLAED, alkaline phosphatase increase
Hepatotoxicity [3] = assay: FDA HLAED, serum glutamic pyruvic transaminase (SGPT) increase
Hepatotoxicity [4] = assay: FDA HLAED, liver enzyme composite activity
Hepatotoxicity [5] = assay: FDA HLAED, gamma-glutamyl transferase (GGT) increase
Hepatotoxicity [6] = assay: FDA HLAED, lactate dehydrogenase (LDH) increase
Throughout, for GGT Increase - Index Value: reference of the scale not given here.
Throughout, for LDH Increase - Index Value: reference of the scale not given here.

Compound | SGOT Increase - Activity Score (Hepatotoxicity [1]) | SGOT Increase - Index Value (Hepatotoxicity [1]) | SGOT Increase - Number of Reports (Hepatotoxicity [1]) | Alkaline Phosphatase Increase - Activity Score (Hepatotoxicity [2]) | Alkaline Phosphatase Increase - Index Value (Hepatotoxicity [2]) | Alkaline Phosphatase Increase - Number of Reports (Hepatotoxicity [2]) | SGPT Increase - Activity Score (Hepatotoxicity [3]) | SGPT Increase - Index Value (Hepatotoxicity [3]) | SGPT Increase - Number of Reports (Hepatotoxicity [3]) | Composite Activity - Active (Hepatotoxicity [4]) | Composite Activity - Marginal (Hepatotoxicity [4]) | Composite Activity - Score (Hepatotoxicity [4]) | GGT Increase - Activity Score (Hepatotoxicity [5]) | GGT Increase - Index Value (Hepatotoxicity [5]) | GGT Increase - Number of Reports (Hepatotoxicity [5]) | LDH Increase - Activity Score (Hepatotoxicity [6]) | LDH Increase - Index Value (Hepatotoxicity [6]) | LDH Increase - Number of Reports (Hepatotoxicity [6]) | other results
C[C@@H]1C[C@H]2[C@@H]3C[C@H](F)C4=CC(=O)C=C[C@]4(C)[C@@]3(F)[C@@H](O)C[C@]2(C)[C@@]1(O)C(=O)SCF [FLUTICASONE] | Inactive | 0.8 | < 4 | Inactive | 0 | < 4 | Inactive | 0.8 | < 4 | 0 | 0 | Inactive | Inactive | 0 | < 4 | Inactive | 0 | < 4 | –
CC(C)n1c(/C=C/C(O)CC(O)CC(=O)O)c(-c2ccc(F)cc2)c2ccccc21 (stereo unspecified) [FLUVASTATIN] | Inactive | 1 | >= 4 | Inactive | 0.5 | >= 4 | Inactive | 1 | >= 4 | – | – | – | Inactive | 0.7 | >= 4 | Inactive | 0 | < 4 | Composite Activity - Active (Hepatotoxicity [4]; Liver): 0; Composite Activity - Marginal (Hepatotoxicity [4]; Liver): 0; Composite Activity - Score (Hepatotoxicity [4]; Liver): Inactive
COCCCC/C(=N\OCCN)c1ccc(C(F)(F)F)cc1 [FLUVOXAMINE] | Active | 8.9 | >= 4 | Inactive | 2.7 | >= 4 | Active | 8.9 | >= 4 | 2 | 0 | Active | Inactive | 1.4 | < 4 | Inactive | 2.1 | < 4 | –
O=C(O)P(=O)(O)O [FOSCARNET] | Active | 121.1 | >= 4 | Active | 181.6 | >= 4 | Active | 72.6 | >= 4 | 5 | 0 | Active | Active | 36.3 | < 4 | Active | 48.4 | >= 4 | –
C[C@@H]1O[C@@H]1P(=O)(O)O [FOSFOMYCIN] | Inactive | 0 | < 4 | Inactive | 0 | < 4 | Inactive | 0 | < 4 | 0 | 0 | Inactive | Inactive | 0 | < 4 | Inactive | 0 | < 4 | –
CCC(=O)O[C@@H](O[P@](=O)(CCCCc1ccccc1)CC(=O)N1C[C@H](C2CCCCC2)C[C@H]1C(=O)O)C(C)C [FOSINOPRIL] | Inactive | 1.5 | >= 4 | Inactive | 0.3 | < 4 | Inactive | 1.5 | >= 4 | 0 | 0 | Inactive | Inactive | 0.6 | < 4 | Inactive | 0.6 | < 4 | –
O=C1NC(c2ccccc2)(c2ccccc2)C(=O)N1COP(=O)(O)O [FOSPHENYTOIN] | Inactive | 0 | < 4 | Inactive | 0 | < 4 | Inactive | 0 | < 4 | 0 | 0 | Inactive | Inactive | 0 | < 4 | Inactive | 0 | < 4 | –
NCC1(CC(=O)O)CCCCC1 [GABAPENTIN] | Inactive | 0.8 | >= 4 | Inactive | 0.7 | >= 4 | Inactive | 0.8 | >= 4 | 0 | 0 | Inactive | Inactive | 0.7 | >= 4 | Inactive | 0.4 | < 4 | –
Nc1nc(O)c2ncn(COC(CO)CO)c2n1 [GANCICLOVIR] | Inactive | 2.7 | >= 4 | Active | 4.2 | >= 4 | Inactive | 2.3 | >= 4 | 1 | 0 | Inactive | Inactive | 0.8 | < 4 | Inactive | 1.9 | >= 4 | –
Nc1ccn([C@@H]2O[C@H](CO)[C@@H](O)C2(F)F)c(=O)n1 [GEMCITABINE] | Inactive | 1.4 | < 4 | Inactive | 4.3 | < 4 | Inactive | 1.4 | < 4 | 0 | 0 | Inactive | Inactive | 1.4 | < 4 | Inactive | 1.4 | < 4 | –
Cc1ccc(C)c(OCCCC(C)(C)C(=O)O)c1 [GEMFIBROZIL] | Inactive | 0 | < 4 | Inactive | 0 | < 4 | Inactive | 0 | < 4 | 0 | 0 | Inactive | Inactive | 0 | < 4 | Inactive | 0 | < 4 | –
CCC1=C(C)CN(C(=O)NCCc2ccc(S(=O)(=O)NC(=O)N[C@H]3CC[C@H](C)CC3)cc2)C1=O [GLIMEPIRIDE] | Inactive | 1.2 | < 4 | Inactive | 1.2 | < 4 | Inactive | 1.2 | < 4 | 0 | 0 | Inactive | Inactive | 1.2 | < 4 | Inactive | 0 | < 4 | –

From ChEMBL document CHEMBL1697781, “Assessment of the health effects of chemicals in humans: II. Construction of an adverse effects database for QSAR modeling” (Curr Drug Discov Technol, 2004)
